Test results taken from patent US7608416B2, “Targeting mPGES-1 as a treatment for inflammation which avoids cardiovascular risk” (The Trustees of the University of Pennsylvania, priority 2004, dated 2009).

Columns and labels:
mice [1] = conditions: mouse, in vivo
Description: (i) Photochemical vascular injury: This model is an adaptation of one previously described method (Yu et al., 2005, J. Clin. Invest. 115:986-95). Briefly, mice were anesthetized with sodium pentobarbital (80 mg/kg, intraperitoneally). The left common carotid artery was isolated and a Doppler flow probe (Model 0.5 VB, Transonic Systems Co., NY) was applied. The probe was connected to a flowmeter (Transonic Model T105) and interpreted with a computerized data acquisition program (Powerlab, AD Instruments, CO). Just before i.v. injection of Rose Bengal (50 mg/kg body weight, Fisher Scientific, NJ), a 1.5-mW green light laser (540 nm) (Melles Griot Inc, Carlsbad, Calif.) was applied to the desired site of injury at a distance of 5 cm from the carotid artery. Blood flow was monitored up to 120 minutes after injection or until stable occlusion occurred. Stable occlusion was defined as a blood flow of 0 ml/min for 3 minutes. To confirm occlusive thrombosis, carotid arterial segments subjected to injury were excised and embedded in paraffin. Sections were then stained with hematoxylin and eosin.

[2] = tested on: PGI2 biosynthesis (urinary 2,3-dinor 6-keto PGF1α, PGIM); experiment: Urinary PGIM (2,3-dinor 6-keto PGF1α) excretion, 24 h urine, GC/MS; type: in vivo, mouse; conditions: DFU, WT male mice, before vs after administration (FIG. 2)
Description: Eicosanoid analyses: Urinary TxM and PGIM were measured in twenty four hour urines collected in metabolic cages. After extraction and purification by thin layer chromatography, they were analyzed by a stable isotope dilution reverse phase (C18) HPLC/tandem mass spectrometry assay and gas chromatography/mass spectrometry, respectively, as previously described (Egan et al., 2005, Circulation 111: 334-242).
The relative contribution of the PGHS enzymes, PGHS-1 and PGHS-2, to the biosynthesis of PGI2 and TxA2 was assessed by measuring urinary 2,3-dinor 6-keto PGF1α (PGIM) and 2,3-dinor TxB2 (TxM) respectively. […] PGIM and TxM was also assessed in PGHS-1 knockdown (KD) mice. […] Traditional NSAIDS and NSAIDs selective for PGHS-2 inhibit COX activity, not POX activity. Tyr385 in PGHS (ovine PGH-1 numbering) is critical for cyclooxygenase (COX) catalysis, but is uninvolved in peroxidase (POX) activity. PGIM and TxM was also assessed in PGHS-2^Y385F mice, in which the cyclooxygenase, but not the peroxidase (POX) function, of PGHS-2 is inactivated, thereby mimicking the effect of a selective PGHS-2 inhibitor (Yu et al., 2005a, J. Clin. Invest. (Submitted manuscript)).

[3] = tested on: PGE2 biosynthesis (urinary PGEM); experiment: Urinary PGEM by LC/MS/MS; type: in vivo, mouse; conditions: DFU, WT male mice, vs pre-administration value (FIG. 11)
Description: Urinary PGEM was measured by LC/MS/MS as follows: First, 10 ng of hexadeuterated PGEM (9,15-dioxo-11α-hydroxy-2,3,4,5-tetranor-prostan-1,20-dioic-17,17,18,18,19,19-d6 acid; Cayman Chemical Co., Ann Arbor, Mich.) was added as an internal standard to 0.1 ml of mouse urine. Next, 50 μL of 1 g/ml methoxyamine HCl was added, and the sample was mixed and allowed to stand at room temperature for 15 minutes. The sample was then diluted to 1.0 ml with water and loaded on a StrataX solid phase extraction (SPE) cartridge (Phenomenex, Torrance, Calif.). The SPE was eluted with 1.0 mL of 5% acetonitrile in ethyl acetate, dried, dissolved in 200 μL 10% acetonitrile in water, and injected for LC/MS/MS analysis. Transitions monitored were m/z 385→336 for the endogenous PGE-M and 391→342 for the internal standard.
PGE2 biosynthesis was assessed in mice having inhibited or deleted PGHS-1 or PGHS-2 function using a mass spectrometric assay (FIG. 9) for the major PGE metabolite, 11α-hydroxy-9,15-dioxo-2,3,4,5-tetranor-prostane-1,20-dioic acid (PGEM). […] Thus, unlike PGI2 biosynthesis, both PGHS-1 and PGHS-2 each contribute substantially to PGE2 biosynthesis.

[4] = target: T1, thromboxane receptor (TP) (Mus musculus, UniProt P30987); experiment: U46619 induced sudden death; type: in vivo; conditions: PGHS-2 KO and PGHS-2 Y385F mice compared to WT, 0.2 mg/kg intravenous, within 15 min
T1 construct: they received a rapid intravenous injection of U46619 (0.2 mg/kg in PBS, Cayman Chemical) via the tail vein; from tissue; host or cells: whole animal: WT, PGHS-2 KO and PGHS-2 Y385F mice, in vivo
T1 sequence (P30987 1-341): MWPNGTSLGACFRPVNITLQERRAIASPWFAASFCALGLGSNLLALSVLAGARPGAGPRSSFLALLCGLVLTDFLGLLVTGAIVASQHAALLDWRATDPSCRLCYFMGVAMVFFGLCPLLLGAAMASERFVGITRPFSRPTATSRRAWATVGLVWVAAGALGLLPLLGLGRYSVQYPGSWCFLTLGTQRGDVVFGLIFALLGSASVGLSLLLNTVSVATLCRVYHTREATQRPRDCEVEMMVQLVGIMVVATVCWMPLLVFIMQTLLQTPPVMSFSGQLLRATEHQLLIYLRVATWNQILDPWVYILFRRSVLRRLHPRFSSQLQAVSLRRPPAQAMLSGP
Description: (iii) U46619 induced sudden death: This model is based on a model established previously (Momi et al., 2000, Eur. J. Pharmacol. 397: 177-85). Briefly, mice (3-4 months old) were anesthetized with sodium pentobarbital. Then they received a rapid intravenous injection of U46619 (0.2 mg/kg in PBS, Cayman Chemical) via the tail vein. Heart rate was monitored for 15 minutes prior to sacrifice.

mice [5] = experiment: Tail cuff blood pressure measurement; type: in vivo, mouse
Description: (i) Tail Cuff measurement: Resting systolic blood pressure was measured in conscious, 3-4 month old mice using a computerized, noninvasive tail-cuff system, BP-2000 Blood Pressure Analysis System™ (Visitech Systems, Inc. Apex, N.C.). […] Mice were adapted to the system for 14 days by taking blood pressure measurements during 25 minute long sessions. The sessions were held once daily between 15:00 and 18:00. After the adaptation period, blood pressure was recorded daily for 3 consecutive days in the same way. Data were collected and analyzed using updated BP 2000 Analysis Software.

[6] = tested on: platelet aggregation induced by collagen; experiment: Whole blood platelet aggregation assay, collagen-induced, ex vivo; type: cell-based, mouse; conditions: 10 nM, collagen 2 μg/ml
Description: 250 μl blood was mixed with 750 μl of sodium chloride at 37° C. Platelet aggregation was performed using a 500 Whole Blood Lumi-Aggregometion System (Chrono-Log Corp, Havertown, Pa.) as previously described ([…] et al., 1983, Thromb. Haemost. 50: 852-6; Booth et al., 1998, Can. J. Physiol. Pharmacol. 76: 811-3; Emery et al., 1995, Arterioscler. Thromb. Vasc. Biol. 15: 748-53). Samples were pretreated with or without 10 nM cicaprost for 1 minute, and aggregation was initiated by addition of 2 μg/ml collagen.

IP (PGI2 receptor) [7] = experiment: Direct measurement of blood pressure (MAP) after i.v. cicaprost; type: in vivo, mouse; conditions: IP-/- mice, 1 μg/kg intravenously
Description: (§1) (iii) Direct measurement of blood pressure: Mice were anesthetized (ketamine 100 mg/kg, acepromazine 5 mg/kg) and placed on a temperature-controlled panel. The right internal jugular vein and left carotid artery were cannulated with PE-10 tubing. The arterial catheter was connected to a Capto SP844 pressure transducer (Capto, Horten, Norway), and blood pressure (BP) was monitored continuously with a Powerlab/8SP system (AD Instruments Inc, Colorado Springs, Colo.), as previously described (Hui et al., 2004, Circulation 110: 3360-6; Rocca et al., 2000, Nat. Med. 6: 219-21). Blood pressure and heart rate were continuously monitored for 20-40 min until stable values were obtained. After the equilibration period and the baseline BP was recorded, mice were injected via the right internal jugular vein with cicaprost (1 μg/kg in 4 ml/kg saline) as a bolus. The same volume of saline was injected before cicaprost administration to exclude volume-mediated BP changes. The BP was continuously recorded until it returned to pretreatment baseline.
(§2) The cardiovascular consequences of deleting just one copy of the IP on cardiovascular function in vivo was studied. Mean arterial pressure (MAP) was measured directly via carotid artery catheterization in anesthetized WT, IP^+/−, and IP^−/− littermates on C57BL/6 genetic background, following administration of the IP agonist cicaprost (Cica) 1 μg/kg intravenously (FIG. 3). The maximal decline evoked by Cica in MAP was 36±3.5% from pretreatment baseline in WT, 24%±3.3% in IP+/− and 0% in IP−/− littermates(F=42, n=5; P<0.0001). […] A similar effect of IP deletion was seen on the inhibitory effect of 10 nM cicaprost on platelet aggregation induced by collagen 2 μg/ml ex vivo (FIG. 4). […] The impact of IP deletion on the time to thrombotic carotid arterial occlusion, induced by green laser activation of Rose Bengal, which causes free radical catalyzed vascular injury, was also gene-dose dependent (FIG. 5, left panel). The time to occlusion fell from 66.3±5.1 min in WTs to […] in IP^+/− to 29.7±7.6 min in IP^−/− mice (F=6.5, n=9-10, P<0.0055). Inhibition of PGHS-2 by DFU also accelerated thrombogenesis, from 59.4±10.4 min to 33.4±4.3 min (n=7-8, P<0.05; FIG. 5, right panel). Thus, the mean impact of DFU on time to occlusion (56.2% of WT value) was intermediate between that of IP^+/− ([…]) and IP^−/− (45.5%) mice.

IP (PGI2 receptor) [8] = target: T2, IP (PGI2 receptor) (Mus musculus, UniProt P43252); experiment: as above; type: in vivo; conditions: 1 μg/kg intravenously; for Maximal decline in MAP from pretreatment baseline: C57BL/6, anesthetized
T2 construct: anesthetized WT, IP^+/−, and IP^−/− littermates on C57BL/6 genetic background, following administration of the IP agonist cicaprost; from tissue; host or cells: whole animal: anesthetized WT, IP+/- and IP-/- mice, C57BL/6 background, in vivo
T2 sequence (P43252 1-412): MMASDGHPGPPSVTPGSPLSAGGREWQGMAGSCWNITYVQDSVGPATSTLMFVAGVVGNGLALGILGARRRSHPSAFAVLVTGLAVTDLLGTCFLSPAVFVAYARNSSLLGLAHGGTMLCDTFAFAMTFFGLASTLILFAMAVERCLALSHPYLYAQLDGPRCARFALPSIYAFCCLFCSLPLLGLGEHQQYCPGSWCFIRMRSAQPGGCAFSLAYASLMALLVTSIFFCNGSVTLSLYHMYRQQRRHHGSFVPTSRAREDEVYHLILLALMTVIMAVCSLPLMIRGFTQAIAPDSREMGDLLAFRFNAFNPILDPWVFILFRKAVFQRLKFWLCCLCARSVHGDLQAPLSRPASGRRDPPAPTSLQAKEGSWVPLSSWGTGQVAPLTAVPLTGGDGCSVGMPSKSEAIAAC
Description: as §1, §2

mice [9] = experiment: Collagen induced platelet consumption; type: in vivo, mouse; conditions: WTs, PGHS-2 Y385F and PGHS-2 KO mice, 2 min after i.v. collagen plus epinephrine
Description: (ii) Collagen induced platelet consumption: Briefly, mice (8 weeks old) were weighed and anesthetized with sodium pentobarbital (80 mg/kg). 100 μl of a mixture of collagen (250 μg/ml) and epinephrine (15 μg/ml) in 0.9% NaCl was injected rapidly into the tail vein. […] After thorough mixing, platelets were counted by automated multispecies hematology analyzers (CDC Technologies), as previously described (Gresele et al, 1990, Thromb. Haemost. 64:80-6).

[10] = 3 month old mice, mixed C57BL/6×129/sv, regular chow

## CC1(C)OC(=O)C(c2cccc(F)c2)=C1c1ccc(S(C)(=O)=O)cc1 [DFU, 5,5-dimethyl-3-(3-fluorophenyl)-4-(4-methylsulphonyl)phenyl-2(5H)-furanone]
Mice [1]
  Mean impact on time to occlusion, % of WT value: 56.2%
[2]
  Urinary 2,3-dinor 6-keto PGF1α (PGIM): depressed significantly
[3]
  Urinary PGEM: depressed PGEM significantly

## CCCCC[C@H](O)/C=C/[C@@H]1[C@@H](C/C=C\CCCC(=O)O)[C@H]2CO[C@@H]1C2 [U46619]
[4]
  Frequency of sudden death: augmented

## Cc1ccc(-c2cc(C(F)(F)F)nn2-c2ccc(S(N)(=O)=O)cc2)cc1 [celecoxib]
Mice [5]; [10]
  Diastolic blood pressure compared to WTs: elevated significantly
  Systolic blood pressure compared to WTs: elevated significantly
Mice [5]; PGHS-1 KD mice
  Hypertensive effect in PGHS-1 KDs compared to WTs: attenuated

## CCC#CC[C@H](C)[C@H](O)C#C[C@@H]1[C@H]2C/C(=C/COCC(=O)O)C[C@H]2C[C@H]1O [cicaprost]
[6]; IP-/- mice
  Inhibition of platelet aggregation: not achieved
[6]; Mus musculus, Platelet, IP+/- mice, read-out: Inhibition of platelet aggregation, % of the maximal inhibition observed in WTs
  inhibition at 0.01 µM: 86.7%
IP (PGI2 receptor) [7]
  Duration of the depressor response: no change in MAP
IP (PGI2 receptor) [7]; C57BL/6, anesthetized
  Maximal decline in MAP from pretreatment baseline: 0%
IP (PGI2 receptor) [8]; IP+/- mice
  Duration of the depressor response: 5.3 ± 1.1 min
  Maximal decline in MAP from pretreatment baseline: 24%±3.3
IP (PGI2 receptor) [8]; WT mice
  Duration of the depressor response: 10.8 ± 2.5 min
  Maximal decline in MAP from pretreatment baseline: 36±3.5%

## collagen
Mice [9]
  Circulating platelet count: dose-dependent decrese in platelets
